Assay results taken from paper PMC7315563, “Bioactive fluorenes. Part III: 2,7-dichloro-9H-fluorene-based thiazolidinone and azetidinone analogues as anticancer and antimicrobial against multidrug resistant strains agents” (BMC Chemistry, 2020).
In brackets after ≈: the same amount, converted by molar mass.

Legend:
MDA-MB-231 cells = assay: FACS analysis, Annexin V and PI staining; type: cell-based, human; details: 24 h, 5g 500, 6c 105, 6d 170, 6k 130 µg/mL
Experimental: To uncover the mechanism of cell death for the compounds 5h, 6c, 6d and 6k on WI-38, A549, and MDA-MB-231 cells; Annexin v and propedium Iodide (PI) were used. In brief, WI-38, A549, MDA-MB-231 cells were cultured in 10 tissue culture dish with initial number 4 × 10^5 cell/Ml in RPMI growth media. […] After 24 h incubations, cells were washed and trypsinized and suspended in 50 μL 1X Annexin v binding buffer followed by adding 5 μL FITC Annexin V and incubated for 15 min at room temperature then 5 μL of PI were added to each tube. Finally, 400 μL of 1X Annexin v binding buffer were added to each tube and analyzed using Becton-Dickinson FACS Caliber.

[1] = tested on: A549 human lung cancer cells; assay: cell viability assay (MTT); type: cell-based; details: 24 h; for viability at 1 µg/mL: read-out: Validity (%) for sample concentrations (µg/mL) 1; for viability at 10 µg/mL: read-out: Validity (%) for sample concentrations (µg/mL) 10; for viability at 31.25 µg/mL: read-out: Validity (%) for sample concentrations (µg/mL) 31.25; for viability at 62.5 µg/mL: 62.50 µg/mL, read-out: Validity (%) for sample concentrations (µg/mL) 62.50; for viability at 125 µg/mL: read-out: Validity (%) for sample concentrations (µg/mL) 125; for viability at 250 µg/mL: read-out: Validity (%) for sample concentrations (µg/mL) 250; for viability at 500 µg/mL: read-out: Validity (%) for sample concentrations (µg/mL) 500; for viability at 1000 µg/mL: read-out: Validity (%) for sample concentrations (µg/mL) 1000
[2] = tested on: Klebsiella pneumoniae (K. pneumoniae), multidrug resistant clinical isolate; assay: agar well diffusion assay; type: cell-based; details: 24 h, 500 µg/mL of tested compound
Procedure, shortened: (§1)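 Multidrug-resistant clinical isolates swabbed on Mueller–Hinton agar at about 1–5 × 10^5 CFU/mL; 0.5 cm wells received 50 μL compound at 500 μg/mL in 1% DMSO. Incubation 24 h, 37 °C for bacteria and C. albicans, 25 °C for Aspergillus; inhibition zone diameter measured in mm.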

[3] = tested on: Staphylococcus aureus (S. aureus), multidrug resistant clinical isolate; assay: agar well diffusion assay; type: cell-based; details: S. aureus, 500 µg/mL of tested compound, 24 h; for zone of inhibition at 500 µg/mL: Staphylococcus aureus
Procedure, shortened: as §1

[4] = tested on: Pseudomonas aeruginosa (P. aeruginosa), multidrug resistant clinical isolate; assay: agar well diffusion assay; type: cell-based; details: 24 h, 500 µg/mL of tested compound
Procedure, shortened: as §1

[5] = tested on: MDA-MB-231 human breast cancer cells; assay: cell viability assay (MTT); type: cell-based; details: 24 h; for viability at 1 µg/mL: read-out: Validity (%) for sample concentrations (µg/mL) 1; for viability at 10 µg/mL: read-out: Validity (%) for sample concentrations (µg/mL) 10; for viability at 31.25 µg/mL: read-out: Validity (%) for sample concentrations (µg/mL) 31.25; for viability at 62.5 µg/mL: read-out: Validity (%) for sample concentrations (µg/mL) 62.5; for viability at 125 µg/mL: read-out: Validity (%) for sample concentrations (µg/mL) 125; for viability at 250 µg/mL: read-out: Validity (%) for sample concentrations (µg/mL) 250; for viability at 500 µg/mL: read-out: Validity (%) for sample concentrations (µg/mL) 500
Procedure, shortened: (§2)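 Seeding at 5000 cells/well in RPMI-1640 plus 10% inactivated FBS; treatment the following day with compound in fresh medium over 0–500 µg/mL; 24 h incubation; MTT viability with absorbance taken at […].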

[6] = tested on: WI-38 human normal fibroblast cells; assay: cell viability assay (MTT); type: cell-based; details: 24 h; for viability at 31.25 µg/mL: read-out: Validity (%) for sample concentrations (µg/mL) 31.25; for viability at 62.5 µg/mL: 62.50 µg/mL, read-out: Validity (%) for sample concentrations (µg/mL) 62.50; for viability at 125 µg/mL: read-out: Validity (%) for sample concentrations (µg/mL) 125; for viability at 250 µg/mL: read-out: Validity (%) for sample concentrations (µg/mL) 250; for viability at 500 µg/mL: read-out: Validity (%) for sample concentrations (µg/mL) 500
Procedure, shortened: as §2

| IC50 [1] | Compound | apoptotic cell death (of total cell number) (MDA-MB-231 cells) | viability at 1 µg/mL [1] | viability at 10 µg/mL [1] | viability at 31.25 µg/mL [1] | viability at 62.5 µg/mL [1] | viability at 125 µg/mL [1] | viability at 250 µg/mL [1] | viability at 500 µg/mL [1] | viability at 1000 µg/mL [1] | zone of inhibition at 500 µg/mL [2] | zone of inhibition at 500 µg/mL [3] | zone of inhibition at 500 µg/mL [4] | viability at 1 µg/mL [5] | viability at 10 µg/mL [5] | viability at 31.25 µg/mL [5] | viability at 62.5 µg/mL [5] | viability at 125 µg/mL [5] | viability at 250 µg/mL [5] | viability at 500 µg/mL [5] | other results |
| --- | --- | --- | --- | --- | --- | --- | --- | --- | --- | --- | --- | --- | --- | --- | --- | --- | --- | --- | --- | --- | --- |
| 85 µg/mL (≈ 160 µM) | O=C1C(Cl)C(c2ccc(Cl)cc2)N1c1nc(-c2cc(Cl)cc3c2-c2ccc(Cl)cc2C3)cs1 (stereo not drawn) [6c, 3-Chloro-4-(4-chlorophenyl)-1-(4-(2,7-dichloro-9H-fluoren-4-yl)thiazol-2-yl)azetidin-2-one] | 80.32% | 92.4% | 80.7% | 59.8% | 54.2% | 31.3% | 25.1% | 19.7% | 17.7% | 6 mm | 7 mm | 10 mm | 92.8% | 77.8% | 63.1% | 53.1% | 46% | 29.4% | 24.8% | necrotic cell death (of total cell number) (MDA-MB-231 cells): 2.15%; IC50 [5]: 104 µg/mL (≈ 195 µM); viability at 31.25 µg/mL [6]: 94.5%; viability at 62.5 µg/mL [6]: 65.9%; viability at 125 µg/mL [6]: 63.4%; viability at 250 µg/mL [6]: 59.5%; viability at 500 µg/mL [6]: 55.5%; IC50 [6]: > 500 µg/mL |
| 117 µg/mL (≈ 203 µM) | O=C1C(Cl)C(c2ccc(Br)cc2)N1c1nc(-c2cc(Cl)cc3c2-c2ccc(Cl)cc2C3)cs1 (stereo not drawn) [6d, 4-(4-Bromophenyl)-3-chloro-1-(4-(2,7-dichloro-9H-fluoren-4-yl)thiazol-2-yl)azetidin-2-one] | 55.355% | 97.9% | 92.6% | 77.2% | 67.3% | 49% | 24.6% | 20.4% | 19.4% | 6 mm | 3 mm | 10 mm | 93.3% | 89.1% | 75.8% | 63.3% | 53.1% | 27.7% | 24% | Mean zone of inhibition [3]: low activity; IC50 [5]: 169 µg/mL (≈ 293 µM); viability at 31.25 µg/mL [6]: 92%; viability at 62.5 µg/mL [6]: 88.1%; viability at 125 µg/mL [6]: 78.6%; viability at 250 µg/mL [6]: 67.5%; viability at 500 µg/mL [6]: 67.7%; IC50 [6]: > 500 µg/mL |
| 203 µg/mL (≈ 403 µM) | O=C1C(Cl)C(c2cccs2)N1c1nc(-c2cc(Cl)cc3c2-c2ccc(Cl)cc2C3)cs1 (stereo not drawn) [6k, 3-Chloro-1-(4-(2,7-dichloro-9H-fluoren-4-yl)thiazol-2-yl)-4-(thiophen-2-yl)azetidin-2-one] | 67.25% | 90.8% | 80.8% | 76% | 70.6% | 55.4% | 39.8% | 28.7% | 23% | 3 mm | 7 mm | 11 mm | 96.4% | 90.7% | 78.6% | 69.6% | 51% | 33.3% | 19.1% | necrotic cell death (of total cell number) (MDA-MB-231 cells): 4.56%; IC50 [5]: 131 µg/mL (≈ 260 µM); viability at 31.25 µg/mL [6]: 77.9%; viability at 62.5 µg/mL [6]: 64%; viability at 125 µg/mL [6]: 61.3%; viability at 250 µg/mL [6]: 60.3%; viability at 500 µg/mL [6]: 58.3%; IC50 [6]: > 500 µg/mL |
